Reference: patent US20040142899A1, “Compositions and methods for enhanced biostability and altered biodistribution of oligonucleotides in mammals” (ISIS Pharmaceuticals, Inc., priority 1990, published 2004)
Where “and” joins values, the source holds several entries; their conditions need not be identical. Identical values can stand only once.

How the values were obtained:
[1] = system: E2 gene of bovine papilloma virus type 1 (BPV-1); test: E2 transactivation assay (pE2RE-1-CAT) in I-38 cells; assay type: cell-based, bovine papilloma virus-1; conditions: I-38 cells transfected with pE2RE-1-CAT, harvested after 48 hours; lower = more inhibition; listed as positive control compound
P-glycoprotein [2] = test: P-glycoprotein expression by Western blotting in MDR 3T3 cells; assay type: cell-based, human; conditions: maximum only after 72 hours exposure
Description: Transfected MDR NIH 3T3 cells were grown and treated with oligonucleotides as described in Example (9)(B). In order to measure P-glycoprotein expression by Western blotting, cells were seeded in 60 mm dishes at 1.2×10^6 per dish and incubated for 24 hours in serum containing medium. The cells were treated with the oligomers for various times in serum free medium as described above. Cells were then extracted in lysis buffer (20 mM Tris, pH 7.5, 2 mM EDTA, 500 mM EGTA, 2 mM PMSF, 1 mM DTT, aprotonin (10 ug/ml), 0.5% Triton-X) and sonicated briefly. The lysate was spun in a microfuge tube for 20 minutes at 4° C. and the resulting supernatant was checked for protein content. Equal amounts of protein (usually 20 ug) were mixed with SDS sample buffer and boiled. Protein samples were separated by 8% SDS PAGE and the resolved proteins were electrophoretically transferred onto polyvinyllidene fluoride membranes (Millipore, Bedford, Mass.). The membranes were blocked (with 3% BSA, 2% non fat dry milk in PBS) and then treated with 2 ug/ml C219 anti-P-glycoprotein antibody (Signet, Dedham, Mass.). After washing three times with 0.1% Tween 20, the membranes were incubated with rabbit anti-mouse antibody (Cappel, Durham, N.C.). Immunoreactive proteins were visualized either by ECL (Enhanced Chemiluminescence, Amersham, Arlington Heights, Ill.) or with ^125I secondary antibodies.

[3] = system: multi-drug resistant 3T3 cells
MDR1 mRNA [4] = test: MDR1 mRNA expression by Northern blotting in MDR 3T3 cells; assay type: cell-based, human
P-glycoprotein [5] = test: Cell surface P-glycoprotein by immunofluorescent staining and flow cytometry in MDR 3T3 cells; assay type: cell-based, human; conditions: 1 μm administered with LIPOFECTIN, parallel experiment
Description: MDR 3T3 cells were treated with various concentrations of oligonucleotides ISIS 11073 (5′-cholesterol 5995), or ISIS 12064 (5′-cholesterol 10221; scrambled control) for 48 hours in serum free medium. The cells were recovered and stained with an anti-P-glycoprotein monoclonal antibody directed against a surface epitope, followed by a phycoerythrin-conjugated second antibody. The level of cell surface fluorescence in viable cells was quantitated using a flow cytometer; light scatter parameters were set so as to exclude non-viable cells. […] The results represent means and standard errors for 6 determinations.
Transfected MDR NIH 3T3 cells were grown and treated with oligonucleotides as described in Example (9)(B). MDR1 mRNA expression was measured by Northern blotting as described in Example (9)(C). In order to measure cell surface P-glycoprotein levels by flow cytometry, cells were seeded in 60 mm dishes at 1.2×10^6/plate in 5 ml of medium, grown for one day in 10% FBS/DMEM, and exposed to the oligomers in serum free medium. […] The level of R-PE fluorescence in viable cells (as determined by light scatter) was quantitated using the Cicero software application (Cytomation, Fort Collins, Co.) on a Becton Dickinson flow cytometer.

MDR1 mRNA [6] = test: MDR1 mRNA expression by Northern blotting in MDR 3T3 cells; assay type: cell-based, human; conditions: for MDR1 mRNA Level (arbitrary units) / % Control (MDR1 mRNA): oligonucleotide 1 μm, with Lipofectin; for MDR1 mRNA Level (arbitrary units): serum free medium; for % Control (MDR1 mRNA): control = untreated cells
Description: NIH 3T3 cells transfected with a plasmid containing the human MDR1 gene (pSK1 MDR) have been previously described (Kane et al., Gene, 1989, 84, 439). These cells have proven to be useful models for the study of multi-drug resistance phenomena. Cells were grown in DMEM media containing 10% fetal bovine serum (FBS) and 60 ng/ml colchicine in an atmosphere of 95% air, 5% CO2.
Cells were grown in […] flasks.
To measure MDR1 mRNA expression by Northern blotting, total cellular RNA was isolated by lysis in 4M guanidium isothiocyanate followed by a cesium chloride gradient, and the RNA was resolved on 1.2% agarose gels containing 1.2% formaldehyde and transferred to nitrocellulose membranes (Dean et al., J. Biol. Chem., 1994, 269, 16416). The blots were hybridized with a ^32P radiolabeled human MDR1 cDNA probe. The MDR1 cDNA probe was isolated by performing a polymerase chain reaction on the pSK1 MDR plasmid, as described previously (Alahari et al., Nucl. Acids Res., 1993, 21, 4079). The following oligonucleotide primers were used for PCR: […]
The resulting fragment was checked on an agarose gel and was radiolabeled with ^32P-dCTP using a commercially available random primer labeling kit (Amersham, Arlington Heights, Ill.) according to the manufacturer's instructions. The filters were hybridized overnight in hybridization buffer (25 mM KPO4, pH 7.4; 5×SSC; 5×Denhardt's solution, 100 ug/ml Salmon sperm DNA and 50% formamide) (Alahari et al., Nucl. Acids Res., 1993, 21, 4079). This was followed by two washes with 1×SSC, 0.1% SDS and two washes with 0.25×SSC, 0.1% SDS. Hybridizing bands were visualized by exposure to X-OMAT AR film and quantitated using a PhosphorImager™ (Molecular Dynamics, Sunnyvale, Calif.). To confirm equal loading of RNA, the blots were stripped and reprobed with a ^32P-labeled beta-actin probe (Clontech, Palo Alto, Calif).
In initial experiments, the MDR 3T3 cells were exposed to 1.0 μm concentrations of several different antisense oligonucleotides, or control oligonucleotides, in the presence of 20 ug/ml LIPOFECTIN® for 24 hours. […] NIH 3T3 cells transfected with pSK1 MDR plasmid were grown to 90% confluence and treated with oligonucleotide (1 μm) for 24 hours in the presence of Lipofectin® in serum free medium. Total RNA was isolated and fractionated on agarose formaldehyde gels and blotted onto nitrocellulose membranes. These membranes were probed with a ^32P radiolabeled 1.0 kb MDR1 cDNA, and then stripped and reprobed with a ^32P radiolabeled beta-actin cDNA probe to confirm equal loading of RNA, allowing the levels of MDR1 transcripts to be normalized with regard to the beta-actin bands. Transcript levels were quantitated using a PHOSPHORIMAGER™ (Molecular Dynamics, Sunnyvale, Calif.); the values are expressed in arbitrary units (the beta-actin transcripts were essentially constant).

[7] = system: RNA complementary strand, Oligomer 41; test: Melting analysis (Tm) of 2′-O-pentylamino linker strand against RNA complementary strand; assay type: binding
Description: (§1) The test oligonucleotides (either the phosphodiester, phosphorothioate, cholic acid conjugated phosphodiester, cholic acid conjugated phosphorothioate or 5′-aminolink intermediate phosphodiester or phosphorothioate oligonucleotides of the invention or otherwise) and either the complementary DNA or RNA oligonucleotides were incubated at a standard concentration of 4 μM for each oligonucleotide in buffer (100 mM NaCl, 10 mM Na-phosphate, pH 7.0, 0.1 mM EDTA). Samples were heated to 90 degrees C. and the initial absorbance taken using a Guilford Response II spectro-photometer (Corning, Inc., Corning, N.Y.). Samples were then slowly cooled to 15° C. and then the change in absorbance at 260 nm was monitored during the heat denaturation procedure. The temperature was elevated 1 degree/absorbance reading and the denaturation profile analyzed by taking the 1st derivative of the melting curve. Data was also analyzed using a two-state linear regression analysis to determine the Tm's. The results of these tests are shown in Table 3 as are the HPLC retention times of certain of the test compounds.
(§2) Melting analysis was conducted as per the method of Procedure B(1)(b).

[8] = system: DNA complementary strand, Oligomer 40; test: Melting analysis (Tm) of 2′-O-pentylamino linker strand against DNA complementary strand; assay type: binding
Description: as §1, §2

PECAM-1 mRNA = PECAM-1 mRNA levels in murine liver (gene target specificity); assay type: in vivo, mouse; conditions: 10 mg/kg
Description: (§3) Mice were treated with oligonucleotides and examined as follows. […] Then, to induce ICAM-1 expression, bacterial lipopolysaccharide (LPS) was injected into the mice. After 2 hours, the mice were sacrificed, and particular organs, or specific portion thereof, were removed for further study. RNA was prepared from isolated, homogenized tissues essentially according to the guanidinium/CsCl purification method of Chirgwin et al. (Biochemistry, […], 18, 5294), electrophoresed and transferred to nylon membranes for hybridization studies (Northern analysis) according to methods well known in the art. In order to detect mouse ICAM-1 mRNA, a radiolabelled probe was prepared by random oligonucleotide-primed synthesis using a mouse ICAM-1 clone as a template. The blots were stripped and reprobed with a ^32P-labeled glyceraldehyde 3-phosphate dehydrogenase (G3PDH) probe (Clontech Laboratories, Inc., Palo Alto, Calif.) in order to confirm equal loading of RNA and to allow the levels of ICAM-1 transcripts to be normalized with regard to the G3PDH signals. Hybridizing bands were visualized by exposure to X-OMAT AR film and quantitated using a PHOSPHORIMAGER™ essentially according to the manufacturer's instructions (Molecular Dynamics, Sunnyvale, Calif.).
(§4) In similar experiments, the sequence (gene target) specificity of the 5′-cholesterol antisense oligonucleotide ISIS 8005 was examined.

c-raf mRNA = c-raf mRNA levels in murine liver (gene target specificity); assay type: in vivo, mouse; conditions: 10 mg/kg
Description: as §3, §4

mouse ICAM-1 mRNA = test: ICAM-1 mRNA levels in LPS-treated mice (Northern analysis); assay type: in vivo
Description: as §3

[9] = Oligomer 38 versus unmodified Oligomer 39

5′-CTG-TCT-CCA-TCC-TCT-TCA-CT (CTGTCTCCATCCTCTTCACT; all phosphorothioate, sugars by position and methylation of C not given here) [Oligomer 42]
percent acetylation (chloramphenicol acetyl transferase) [1]: 29% and 30%

CAC-CAC-CCC-CCT-CGC-TGG-TC (CACCACCCCCCTCGCTGGTC; chemistry not given here) [ISIS 10221, reference compound]
reduction of P-glycoprotein (Western assays) (P-glycoprotein [2]): did not reduce P-glycoprotein expression
non-specific effects at higher concentrations [3]: reduced beta-actin message levels and increased cytotoxicity
MDR1/beta-actin ratio (MDR1 mRNA [4]; repeated experiments, laser densitometry of autoradiograms): 1.01
effect on P-glycoprotein surface expression (P-glycoprotein [5]): less effective than an equivalent concentration of the cholesterol-conjugated analogs
MDR1 mRNA Level (arbitrary units) (MDR1 mRNA [6]; 24 hours): 456,522 arbitrary units
% Control (MDR1 mRNA) (MDR1 mRNA [6]; 24 hours): 96%

CCA-TCC-CGA-CCT-CGC-GCT-CC (CCATCCCGACCTCGCGCTCC; chemistry not given here) [ISIS 5995]
reduction of P-glycoprotein (Western assays) (P-glycoprotein [2]): at least 80%
treatment time of maximum specific reduction of MDR1 mRNA (MDR1 mRNA [4]; 1 μm, 24, 48 and 72 hours tested): 24 h
lowest concentration with some reduction in message levels (MDR1 mRNA [4]; dose response 50-1000 nM, 24 hours, LIPOFECTIN): 100 nM
effect on P-glycoprotein surface expression (P-glycoprotein [5]): less effective than an equivalent concentration of the cholesterol-conjugated analogs
reduction in MDR1 message levels (MDR1 mRNA [6]; 1.0 μm, 20 ug/ml LIPOFECTIN, 24 hours): about 50%
time to normal levels of MDR1 mRNA after return to medium without oligonucleotide (MDR1 mRNA [6]; after 24 hours exposure): ≤ 24 h
reduction in MDR1 message at maximal specific effect (MDR1 mRNA [6]; approximately 1.0 μm, 24 hours, LIPOFECTIN (FIG. 1)): approximately 60%
MDR1 mRNA Level (arbitrary units) (MDR1 mRNA [6]; 24 hours): 226,087 arbitrary units
% Control (MDR1 mRNA) (MDR1 mRNA [6]; 24 hours): 48%

GGA*-CCG-GA*A*-GGT-A*CG-A*G (GGACCGGAAGGTACGAG; chemistry not fully specified) [Oligomer 38, A* = pentylamino functionality at 2′-position]
change in Tm (Δ38-39) RNA [7, 9]: (1.1) degrees
Tm RNA ([7]; against Oligomer 41, 4 μM each strand, 100 mM NaCl, 10 mM Phosphate, 0.1 mM EDTA, pH 7.0): 58.0 degrees centigrade
change in Tm (Δ38-39) DNA [8, 9]: (6.1) degrees
Tm DNA ([8]; against Oligomer 40, 4 μM each strand, 100 mM NaCl, 10 mM Phosphate, 0.1 mM EDTA, pH 7.0): 54.5 degrees centigrade

U*GC-ATC-CCC-CAG-GCC-ACC-AT [ISIS 8005]
effect on PECAM-1 mRNA levels (PECAM-1 mRNA): no effect
effect on c-raf mRNA levels (c-raf mRNA): no effect
reduction of hepatic ICAM-1 mRNA relative to LPS without oligonucleotide (mouse ICAM-1 mRNA; liver, 30 mg/kg i.v. 24 and 2 hours prior to LPS): about 50%
reversal of LPS-mediated induction of ICAM-1 mRNA in the lung (mouse ICAM-1 mRNA; lung samples, 30 mg/kg): neither ISIS 3082 nor its 5′-cholesterol conjugate ISIS 8005 was able to reverse the LPS-mediated induction of ICAM-1 to any great degree
ICAM-1 staining of liver sections (ICAM-1 protein; LPS-induced livers, HRP-conjugated secondary antibodies): virtually indistinguishable
overall cellular structure of liver (ICAM-1 protein; mouse, in vivo): no gross cellular defects
